The values below come from patent publication US5264429A, “2-spirocyclopropyl cephalosporin sulfone derivatives” (SynPhar Laboratories, Inc., priority 1991, dated 1993).

Each structure is given as a SMILES string. Like-named read-outs stand apart in the source and are kept apart here.

One experiment concerns the target T1, cathepsin G (Homo sapiens, UniProt P08311).
T1 construct: from tissue; host or cells: human white blood cells
T1 sequence (P08311 21-244 limits assumed): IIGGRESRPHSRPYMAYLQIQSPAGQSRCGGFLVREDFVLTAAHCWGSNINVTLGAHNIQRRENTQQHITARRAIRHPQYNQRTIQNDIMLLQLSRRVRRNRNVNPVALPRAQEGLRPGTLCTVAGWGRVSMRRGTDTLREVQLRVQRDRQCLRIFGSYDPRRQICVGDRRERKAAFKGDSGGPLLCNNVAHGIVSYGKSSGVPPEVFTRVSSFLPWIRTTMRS
The experiment is described as follows: Inhibition of cathepsin G (CTG). The experiment is classed as biochemical.

The target in the next experiment is T2, plasmin (Homo sapiens, UniProt P00747).
T2 construct: from tissue; host or cells: human plasma
T2 sequence (P00747 581-810 limits assumed): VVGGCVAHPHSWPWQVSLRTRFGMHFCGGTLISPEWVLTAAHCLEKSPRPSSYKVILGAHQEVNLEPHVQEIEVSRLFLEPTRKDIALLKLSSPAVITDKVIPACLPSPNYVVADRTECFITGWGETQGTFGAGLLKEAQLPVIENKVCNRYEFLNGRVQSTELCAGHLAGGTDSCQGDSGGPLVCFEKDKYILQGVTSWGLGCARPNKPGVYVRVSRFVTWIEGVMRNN
T2 sequence (P00747 97-580 partner limits assumed): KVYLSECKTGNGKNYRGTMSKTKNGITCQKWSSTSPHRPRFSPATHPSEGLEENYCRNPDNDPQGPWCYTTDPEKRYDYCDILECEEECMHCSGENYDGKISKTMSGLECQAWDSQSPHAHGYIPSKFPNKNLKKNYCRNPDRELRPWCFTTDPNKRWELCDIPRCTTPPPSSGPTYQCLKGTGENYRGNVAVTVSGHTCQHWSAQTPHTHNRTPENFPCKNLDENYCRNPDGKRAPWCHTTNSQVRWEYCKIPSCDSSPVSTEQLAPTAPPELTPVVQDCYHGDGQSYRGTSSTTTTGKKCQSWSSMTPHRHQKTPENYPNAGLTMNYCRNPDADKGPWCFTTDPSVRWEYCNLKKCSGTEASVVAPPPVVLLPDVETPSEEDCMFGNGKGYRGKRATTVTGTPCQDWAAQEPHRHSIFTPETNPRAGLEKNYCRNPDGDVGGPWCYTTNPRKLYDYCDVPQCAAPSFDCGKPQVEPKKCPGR
The experiment is described as follows: Inhibition of plasmin (PTH). Type of experiment: biochemical. The following applies: pH 8.9, 10 minute preincubation, 22° C. Here is the method:
HLE, CTG, PPE and CTD were tested at 30° C. and the others were
TRY, trypsin; THR, thrombin; PTH, plasmin; CTC, cathepsin C; ATM,
Enzyme: Purified plasmin from human plasma Substrate: Tosyl-glyclyl-L-prolyl-L-lysine-pNA acetate
Reaction mixture: 50 mM Tris-HCl buffer (pH 8.9), 500 mM NaCl, 5% DMSO, 0.5 mM Substrate.
Except for Cathepsin D, the enzyme activities were determined by monitoring the increase in absorbance at 410 nm caused by the hydrolysis of chromogenic substrates. The activity of Cathepsin D was determined by monitoring the absorbance of 5% trichloroacetic acid-soluble material at 280 nm.
(§1) Inhibition of enzymes by the compounds described were determined after a 10 minute preincubation with enzymes in reaction mixtures minus substrate. Reactions were initiated by the addition of substrates. The concentration used for assays were porcine pancreatic elastase at 240 nM and human Cathepsin G at 50 nM. Cathepsin D was used at the concentration that produced approximately 0.15 O.D. increase per 20 min at 280 nm under the standard conditions. All other proteases were assayed at the concentrations that produced approximately 0.1 O.D. change per minute at 410 nm under the standard conditions.

The target of another experiment is T3, cathepsin D (Bos taurus, UniProt P80209).
T3 construct: from tissue; host or cells: bovine spleen
T3 sequence (P80209 45-390): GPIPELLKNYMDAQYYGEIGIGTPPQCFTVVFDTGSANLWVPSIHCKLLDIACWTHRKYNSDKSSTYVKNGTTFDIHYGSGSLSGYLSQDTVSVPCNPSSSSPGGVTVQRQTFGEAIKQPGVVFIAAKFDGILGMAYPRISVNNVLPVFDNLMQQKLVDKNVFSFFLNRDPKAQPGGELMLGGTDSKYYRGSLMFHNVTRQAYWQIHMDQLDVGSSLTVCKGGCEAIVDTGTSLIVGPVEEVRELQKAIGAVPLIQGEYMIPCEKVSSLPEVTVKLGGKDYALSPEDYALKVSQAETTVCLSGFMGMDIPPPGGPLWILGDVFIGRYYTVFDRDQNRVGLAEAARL
The experiment is described as follows: Inhibition of cathepsin D (CTD). The experiment is classed as biochemical, bovine. The following applies: cathepsin D, pH 3.2, 10 minute preincubation, 30° C.; read-out: IC50 CTD. The method, then: as §1, with “Except for Cathepsin D, the enzyme activities were determined by monitoring the increase in absorbance at 410 nm caused by the hydrolysis of chromogenic substrates. The activity of Cathepsin D was determined by monitoring the absorbance of 5% trichloroacetic acid-soluble material at 280 nm. Inhibition” for “Inhibition”, “The concentration used for assays were porcine pancreatic elastase at 240 nM and human Cathepsin G at 50 nM.” left out

Another experiment has as its target T4, trypsin (Bos taurus, UniProt P00760).
T4 construct: from tissue; host or cells: bovine pancreas
T4 sequence (P00760 24-246): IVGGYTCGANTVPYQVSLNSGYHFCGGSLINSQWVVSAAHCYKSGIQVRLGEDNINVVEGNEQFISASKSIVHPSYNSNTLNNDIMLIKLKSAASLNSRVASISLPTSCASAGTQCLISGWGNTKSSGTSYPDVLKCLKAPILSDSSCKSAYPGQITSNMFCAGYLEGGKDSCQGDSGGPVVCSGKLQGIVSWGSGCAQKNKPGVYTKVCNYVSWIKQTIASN
The experiment is described as follows: Inhibition of trypsin (TRY). The experiment is classed as biochemical, bovine.

Experiment [1] deals with T5, human leukocyte elastase (HLE) (Homo sapiens, UniProt P08246).
T5 construct: from tissue; host or cells: human white blood cells
T5 sequence (P08246 30-247 limits assumed): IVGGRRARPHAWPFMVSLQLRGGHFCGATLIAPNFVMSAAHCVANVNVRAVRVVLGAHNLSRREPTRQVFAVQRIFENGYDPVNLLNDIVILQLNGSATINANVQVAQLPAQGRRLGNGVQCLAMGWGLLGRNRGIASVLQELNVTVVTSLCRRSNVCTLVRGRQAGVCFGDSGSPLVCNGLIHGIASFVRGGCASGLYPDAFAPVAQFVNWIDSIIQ
The experiment is described as follows: Enzyme Assay for Inhibition of HLE. Type of experiment: biochemical. The following applies: HLE 10 nM, pH 7.6, 10 minute preincubation, 30° C. The method, then:
Enzyme Assay for Inhibition of HLE:
Enzyme: Purified elastase from human white blood cells.
Substrate: MeO-succinyl-L-alanyl-L-alanyl-L-prolyl-L-valine-p-nitro-anilide(NA).
Reaction Mixture: 10 mM phosphate buffer (pH 7.6), 500 mM NaCl, 10% dimethylsulfoxide (DMSO), 0.35 mM substrate.
The enzyme activity was determined by monitoring the increase in absorbance at 410 nm caused by the hydrolysis of chromogenic substrates. Inhibition of enzyme by the compounds described were determined after a 10 minute preincubation with the enzyme in reaction mixture minus substrate. Reaction was initiated by the addition of substrate. The concentration of human leukocyte elastase used for assay was at 10 nM.
HLE, CTG, PPE and CTD were tested at 30° C. and the others were […]

Where [2] appears, read: cathepsin G 50 nM, pH 7.5, 10 minute preincubation, 30° C., read-out: IC50 CTG (converted).
Setting [3] is: trypsin, pH 8.8, 10 minute preincubation, 22° C., read-out: IC50 TRY (converted).

Description for cathepsin G: Enzyme: Purified Cathepsin G from human white blood cells
Substrate: N-succinyl-L-alanyl-L-alanyl-L-phenylalanyl-L-phenylalanine -p-NA.
Reaction mixture: 10 mM Phosphate buffer (pH 7.5), 500 mM NaCl, 10% DMSO, 2.0 mM Substrate.
Description for trypsin: Enzyme: Purified trypsin from bovine pancreas
Substrate: Bz-L-arginine-p-NA
Reaction mixture: 50 mM Tricine[N-Tris(hydroxymethyl)methylglycine]-NaOH buffer (pH 8.8) 150 mM NaCl, 10% DMSO 1.0 mM Substrate.
Inhibition of enzymes by the compounds described were determined after a 10 minute preincubation with enzymes in reaction mixtures minus substrate. Reactions were initiated by the addition of substrates. […] All other proteases were assayed at the concentrations that produced approximately 0.1 O.D. change per minute at 410 nm under the standard conditions.

For the compound `CCO[C@H]1C(=O)N2C(C(=O)OCC(Cl)(Cl)Cl)=C(C)C3(CC3(c3ccccc3)c3ccccc3)S(=O)(=O)[C@H]12` (stereo partly drawn) [Example 7, 2,2,2-Trichloroethyl-7α-ethoxy-2-spiro(2',2'-diphenyl)cyclo-propyl-3-methyl-3-cephem-4-carboxylate-1,1-dioxide], the IC50 was 0.32 µM on cathepsin G (setting [2]); > 10 µM on plasmin; > 10 µM on cathepsin D; > 10 µM on trypsin (setting [3]); 0.00547 µM in experiment [1].

In the case of `CC1=C(C(=O)OC(c2ccccc2)c2ccccc2)N2C(=O)[C@H](Br)[C@H]2S(=O)(=O)C12CC2(c1ccc(Cl)cc1)c1ccc(Cl)cc1` (single isomer, unassigned) [Example 12, Benzhydryl 7α-bromo-2-spiro [2',2'-(4',4'-dichloro)diphenyl]cyclopropyl-3-methyl-3-cephem-4-carboxylate-1,1-dioxide], the IC50 on cathepsin G (setting [2]) was 19.4 µM; against plasmin, 2.21 µM; at cathepsin D it was > 46.2 µM; against trypsin, 55.3 µM; in experiment [1], 0.0101 µM.

As to `CC1=C(C(=O)OC(c2ccccc2)c2ccccc2)N2C(=O)[C@H](Br)[C@H]2S(=O)(=O)C12CC2(c1ccccc1)c1ccccc1` (single isomer, unassigned) [Example 2, benzhydryl 7α-bromo-2-spiro(2', 2'-diphenyl) cyclopropyl-3-methyl-3-cephem-4-carboxylate-1,1-dioxide], the IC50 at cathepsin G (setting [2]) was > 16.2 µM; on plasmin it was 3.21 µM; on cathepsin D it was > 50 µM; at trypsin (setting [3]), > 37 µM; in experiment [1] it was 0.0336 µM.

Regarding `CC1=C(C(=O)OC(c2ccccc2)c2ccccc2)N2C(=O)[C@H](Br)[C@H]2S(=O)(=O)C12CC2(C)c1ccccc1` (stereo partly drawn) [Example 13 (2), Benzhydryl 7α-bromo-2-spiro(2'-phenyl-2'-methyl) cyclopropyl-3-methyl-3-cephem-4-carboxylate-1,1-dioxide], the IC50 against cathepsin G is 40 µM; against plasmin, 5.5 µM; on cathepsin D, > 46.6 µM; on trypsin (setting [3]), 0.147 µM; in experiment [1], 0.00473 µM.

Take `CC1=C(C(=O)OC(c2ccccc2)c2ccccc2)N2C(=O)[C@H](Cl)[C@H]2S(=O)(=O)C12CC2(c1ccccc1)c1ccccc1` (single isomer, unassigned) [Example 1, Benzhydryl 7α-chloro-2-spiro(2',2'-diphenyl) cyclopropyl-3-methyl-3-cephem-4-carboxylate-1,1-dioxide]: the half-maximal inhibitory concentration (IC50) was 20 µM on cathepsin G (setting [2]); 3.61 µM against plasmin; > 50 µM at cathepsin D; > 60 µM at trypsin (setting [3]); 0.00475 µM in experiment [1].

Regarding `CC1=C(C(=O)N2CCCC2)N2C(=O)[C@H](Br)[C@H]2S(=O)(=O)C12CC2(c1ccccc1)c1ccccc1` (stereo partly drawn) [Example 6, 7α Bromo-2-spiro(2',2'-diphenyl)cyclopropyl-3-methyl-3-cephem-4-pyrrolidine carboxamide-1,1-dioxide], the IC50 at cathepsin G (setting [2]) was > 39 µM; at plasmin it was > 39 µM; at cathepsin D it was > 9.77 µM; on trypsin (setting [3]), > 39 µM; in experiment [1], 0.0107 µM.

For `CC1=C(C(=O)OC(C)(C)C)N2C(=O)[C@H](Br)[C@H]2S(=O)(=O)C12CC2(c1ccccc1)c1ccccc1` (stereo partly drawn) [Example 3, t-Butyl 7α-bromo-2-spiro(2',2'-diphenyl) cyclopropyl-3-methyl-3-cephem 4-carboxylate-1,1-dioxide], the IC50 is 40 µM on cathepsin G (setting [2]); 5.51 µM on plasmin; > 50 µM on cathepsin D; > 40 µM on trypsin (setting [3]); 0.00496 µM in experiment [1].

For the compound `CO[C@H]1C(=O)N2C(C(=O)OCC(Cl)(Cl)Cl)=C(C)C3(CC3(c3ccccc3)c3ccccc3)S(=O)(=O)[C@H]12` (stereo partly drawn) [Example 8, 2,2,2-Trichloroethyl-7α-methoxy-2-spiro(2',2'-diphenyl) cyclopropyl-3-methyl-3-cephem-4-carboxylate-1,1-dioxide], the IC50 was 0.403 µM at cathepsin G (setting [2]); 1.3 µM at plasmin; > 9.98 µM on cathepsin D; 0.648 µM at trypsin (setting [3]); 0.00438 µM in experiment [1].

`CC1=C(C(=O)OC(c2ccccc2)c2ccccc2)N2C(=O)[C@H](Br)[C@H]2S(=O)(=O)C12CC2(c1ccc(F)cc1)c1ccc(F)cc1` (single isomer, unassigned) [Example 13, Benzhydryl 7α-bromo-2-spiro[2',2'-(4',4'-difluoro)diphenyl] cyclopropyl-3-methyl-3-cephem-4-carboxylate-1,1-dioxide]: the IC50 at cathepsin G (setting [2]) was 19 µM; on plasmin, 3.19 µM; on cathepsin D, > 50 µM; on trypsin, > 40 µM; in experiment [1], 0.00507 µM.

With `CO[C@H]1C(=O)N2C(C(=O)OC(c3ccccc3)c3ccccc3)=C(C)C3(CC3(c3ccccc3)c3ccccc3)S(=O)(=O)[C@H]12` (stereo partly drawn) [Example 9, Benzhydryl 7α-methoxy-2-spiro (2',2'-diphenyl) cyclopropyl-3-methyl-3-cephem-4-carboxylate-1,1-dioxide], the IC50 was > 10 µM at cathepsin G (setting [2]); 8.8 µM on plasmin; > 8.35 µM on cathepsin D; > 10 µM against trypsin; 0.00363 µM in experiment [1].

For the compound `CO[C@H]1C(=O)N2C(C(=O)N3CCCC3)=C(C)C3(CC3(c3ccccc3)c3ccccc3)S(=O)(=O)[C@H]12` (stereo partly drawn) [Example 10, 7α-Methoxy-2-spiro (2',2'-diphenyl)cyclopropyl-3-methyl-3-cephem-4-pyrrolidine carboxamide-1,1-dioxide], the IC50 on cathepsin G (setting [2]) is > 30.9 µM; against plasmin, > 40 µM; on cathepsin D, > 9.97 µM; at trypsin (setting [3]), > 35.9 µM; in experiment [1], 0.0447 µM.

Consider `CCOC(=O)C1CC12C(C)=C(C(=O)OC(c1ccccc1)c1ccccc1)N1C(=O)[C@H](Br)[C@H]1S2(=O)=O` (stereo partly drawn) [Example 13 (1), Benzhydryl 7α-bromo-2-spiro(2'-ethoxycarbonyl)cyclopropyl-3-methyl-3-cephem-4-carboxylate-1,1-dioxide], for which the IC50 on cathepsin G (setting [2]) is 13 µM; against plasmin, 11 µM; at cathepsin D, > 50 µM; at trypsin (setting [3]), 0.58 µM; in experiment [1], 0.0644 µM.
